Assay results published in patent publication US20240398757A1 (COCRYSTAL PHARMA, INC., priority 2022, published 2024).

The compounds below were run against T1, SARS2 protease (Severe acute respiratory syndrome coronavirus 2, UniProt P0DTD1) (assay: SARS-CoV-2 protease inhibition assay (SARS2 FRET protease assay)). Conditions: IC50 (μM), SARS2 protease 30 nM, peptide substrate 1.3 μM, 120 minutes at 37° C., compounds 20 μM to 0.075 nM.
T1 construct: SARS2 protease was added to a final concentration of 30 nM
Type: biochemical

Row | SMILES | IC50
1 | CC(C)C[C@H](NC(=O)O[C@@H](c1ccccc1)C(F)(F)c1cccc(F)c1)C(=O)N[C@H](C=O)C[C@@H]1CCNC1=O [Compound A223, (S)-2,2-difluoro-2-(3-fluorophenyl)-1-phenylethyl ((S)-4-methyl-1-oxo-1-(((S)-1-oxo-3-((S)-2-oxopyrrolidin-3-yl)propan-2-yl)amino)pentan-2-yl)carbamate] | 7 nM
2 | CCC(CC)(c1cccc(Cl)c1)C(OC(=O)N[C@@H](CC(C)C)C(=O)N[C@H](C=O)C[C@@H]1CCNC1=O)c1ccc(F)c(F)c1 (stereo partly shown) [Compound A18] | 10 nM
3 | CCCC[C@H](NC(=O)OC(c1cccc(F)c1)C1(c2cccc(Cl)c2)CC1)C(=O)N[C@H](C=O)C[C@@H]1CCNC1=O (stereo partly shown) [Compound A96] | 7 nM
4 | CCCCCOC(=O)N[C@@H](CC(C)C)C(=O)N[C@H](C=O)C[C@@H]1CCNC1=O [Compound A13] | 80 nM
5 | CCCC[C@H](NC(=O)OC(c1ccccc1)C(F)(F)c1cccc(Cl)c1)C(=O)NC(CN1CCNC1=O)C(=O)C(=O)NC1CC1 (stereo partly shown) [Compound A306] | 4410 nM
6 | CCNC(=O)C(=O)[C@H](C[C@@H]1CCNC1=O)NC(=O)[C@H](CC1(C)CCC1)NC(=O)O[C@H](c1ccccc1)C(F)(F)c1cccc(Cl)c1 [Compound A326] | 367 nM
7 | CCCC[C@H](NC(=O)O[C@@H](c1ccccc1)C(F)(F)c1cccc(Cl)c1)C(=O)N[C@H](C=O)C[C@@H]1CCCNC1=O [Compound A150] | < 0.1 nM
8 | CCCC[C@H](NC(=O)OC(c1cccc(F)c1)C1(c2cccc(Cl)c2)CC1)C(=O)N[C@@H](C[C@@H]1CCNC1=O)C(=O)C(=O)NC1CC1 (stereo partly shown) [Compound A105] | 510 nM
9 | CC(C)C[C@H](NC(=O)O[C@@H](c1cccc(Cl)c1)C1(c2cccc(Cl)c2)CC1)C(=O)N[C@@H](C[C@@H]1CCNC1=O)C(=O)C(=O)NC1CC1 [Compound A31] | 7 nM
10 | CCC(CC)(c1cccc(Cl)c1)C(OC(=O)N[C@@H](CC(C)C)C(=O)N[C@H](C=O)C[C@@H]1CCNC1=O)c1ccc(Cl)cc1 (stereo partly shown) [Compound A46] | 1740 nM
11 | CCCC[C@H](NC(=O)OC(c1ccc(F)cc1)C(F)(F)c1cccc(F)c1)C(=O)N[C@H](C=O)C[C@@H]1CCNC1=O (stereo partly shown) [Compound A55] | 10 nM
12 | CCCC[C@H](NC(=O)O[C@H](c1cccnc1)C(F)(F)c1cccc(Cl)c1)C(=O)N[C@H](C=O)C[C@@H]1CCNC1=O [Compound A268, (R)-2-(3-chlorophenyl)-2,2-difluoro-1-(pyridin-3-yl)ethyl ((S)-1-oxo-1-(((S)-1-oxo-3-((S)-2-oxopyrrolidin-3-yl)propan-2-yl)amino)hexan-2-yl)carbamate] | 0.08 nM
13 | CCCC[C@H](NC(=O)O[C@@H](c1ccccc1)C(C)(C)c1cccc(Cl)c1)C(=O)N[C@H](C=O)C[C@H]1CCNC1=O [Compound A122, (S)-2-(3-Chlorophenyl)-2-methyl-1-phenylpropyl ((S)-1-oxo-1-(((S)-1-oxo-3-((R)-2-oxopyrrolidin-3-yl)propan-2-yl)amino)hexan-2-yl)carbamate] | < 0.1 nM
14 | CCCC(=O)OC([C@H](C[C@@H]1CCNC1=O)NC(=O)[C@H](CC1CCCCC1)NC(=O)O[C@@H](c1ccccc1)C(F)(F)c1cccc(Cl)c1)S(=O)(=O)O (stereo partly drawn) [Compound A242, sodium (2S,6S,9S)-1-(3-chlorophenyl)-6-(cyclohexylmethyl)-1,1-difluoro-4,7,12-trioxo-9-(((S)-2-oxopyrrolidin-3-yl)methyl)-2-phenyl-3,11-dioxa-5,8-diazapentadecane-10-sulfonate] | 1200 nM
15 | O=C[C@H](C[C@@H]1CCNC1=O)NC(=O)[C@H](CC1CCCCC1)NC(=O)O[C@@H](c1ccccc1)C(F)(F)c1cccc(F)c1 [Compound A126] | < 0.01 nM
16 | O=C(N[C@@H](CC1CCCC1)C(=O)N[C@@H](C[C@@H]1CCNC1=O)C(=O)C(=O)NC1CC1)OC(c1ccccc1)C(F)(F)c1cccc(Cl)c1 (stereo partly shown) [Compound A103] | 156 nM
17 | CCNC(=O)C(=O)[C@H](C[C@@H]1CCNC1=O)NC(=O)[C@H](CC1CC1)NC(=O)O[C@@H](c1ccccc1)C(F)(F)c1cccc(Cl)c1 [Compound A174] | 1.4 nM

Row | SMILES | IC50
18 | CC(C)C[C@H](NC(=O)O[C@@H](c1ccccc1)C(F)(F)c1cccc(Cl)c1)C(=O)N[C@@H](C[C@@H]1CCNC1=O)C(=O)C(N)=O [Compound A282, (S)-2-(3-chlorophenyl)-2,2-difluoro-1-phenylethyl ((S)-1-(((S)-4-amino-3,4-dioxo-1-((S)-2-oxopyrrolidin-3-yl)butan-2-yl)amino)-4-methyl-1-oxopentan-2-yl)carbamate] | 1 nM
19 | CCC[C@H](NC(=O)OC(c1ccccc1)C(F)(F)c1cccc(F)c1)C(=O)N[C@H](C=O)C[C@@H]1CCNC1=O (stereo partly shown) [Compound A89] | 20 nM
20 | CC(C)C[C@H](NC(=O)OC(c1ccccc1)C(C)(C)c1cccc(Cl)c1)C(=O)N[C@H](C=O)C[C@@H]1CCCNC1=O (stereo partly shown) [Compound A42] | 9 nM
21 | O=C(N[C@@H](CCCF)C(=O)N[C@@H](C[C@@H]1CCNC1=O)C(=O)C(=O)NC1CC1)OC(c1ccccc1)C(F)(F)c1cccc(Cl)c1 (stereo partly shown) [Compound A180] | 95 nM
22 | CC[C@@H](C)C[C@H](NC(=O)O[C@@H](c1ccccc1)C(F)(F)c1cccc(Cl)c1)C(=O)N[C@@H](C[C@@H]1CCNC1=O)C(=O)C(=O)NC1CC1 [Compound A312] | 640 nM
23 | CCCC[C@H](NC(=O)CC(O)(c1ccccc1)C(C)(C)c1cccc(Cl)c1)C(=O)N[C@H](C=O)C[C@@H]1CCNC1=O (stereo partly drawn) [Compound A260, (2S)-2-(4-(3-chlorophenyl)-3-hydroxy-4-methyl-3-phenylpentanamido)-N—((S)-1-oxo-3-((S)-2-oxopyrrolidin-3-yl)propan-2-yl)hexanamide] | 2 nM
24 | CCNC(=O)C(=O)[C@H](C[C@@H]1CCNC1=O)NC(=O)[C@H](CC1CCCC1)NC(=O)O[C@@H](c1ccccc1)C(F)(F)c1cccc(Cl)c1 [Compound A220, (S)-2-(3-chlorophenyl)-2,2-difluoro-1-phenylethyl ((S)-3-cyclopentyl-1-(((S)-4-(ethylamino)-3,4-dioxo-1-((S)-2-oxopyrrolidin-3-yl)butan-2-yl)amino)-1-oxopropan-2-yl)carbamate] | 183 nM
25 | CCNC(=O)C(=O)[C@H](C[C@@H]1CCNC1=O)NC(=O)[C@H](CC1CCCC1)NC(=O)OC(c1ccccc1)C(F)(F)c1cccc(Cl)c1 (stereo partly drawn) [Compound A117, 2-(3-chlorophenyl)-2,2-difluoro-1-phenylethyl ((S)-3-cyclopentyl-1-(((S)-4-(ethylamino)-3,4-dioxo-1-((S)-2-oxopyrrolidin-3-yl)butan-2-yl)amino)-1-oxopropan-2-yl)carbamate] | 2.8 nM
26 | CCCC[C@H](NC(=O)OC(c1ccccc1)C(F)(F)c1cccc(Cl)c1)C(=O)N[C@H](C=O)C[C@@H]1CCCNC1=O (stereo partly shown) [Compound A114] | 0.3 nM
27 | O=C[C@H](C[C@@H]1CCNC1=O)NC(=O)[C@H](Cc1cccc(Cl)c1)NC(=O)OC(c1ccccc1)C(F)(F)c1cccc(Cl)c1 (stereo partly shown) [Compound A286] | 0.1 nM
28 | CCCC[C@H](NC(=O)OC(c1ccccc1)C(F)(F)c1cccc(Cl)c1)C(=O)N[C@@H](C[C@H]1CCNC1=O)C(=O)C(=O)NCC (stereo partly shown) [Compound A185] | 910 nM
29 | CCC[C@H](NC(=O)O[C@H](c1ccccc1)C(F)(F)c1cccc(F)c1)C(=O)N[C@H](C=O)C[C@@H]1CCNC1=O [Compound A172] | 18.5 nM
30 | O=C[C@H](C[C@@H]1CCNC1=O)NC(=O)[C@H](CC1CCC1)NC(=O)OC(c1ccccc1)C(F)(F)c1cccc(Cl)c1 (stereo partly shown) [Compound A102] | 0.1 nM
31 | CCCC[C@H](NC(=O)OC(c1cccc(F)c1)C1(c2cccc(F)c2)CC1)C(=O)N[C@@H](C[C@@H]1CCNC1=O)C(=O)C(=O)NC1CC1 (stereo partly shown) [Compound A104] | 309 nM
32 | CC(C)C[C@H](NC(=O)OC(c1ccc(Cl)cc1)C1(c2cccc(Cl)c2)CCCCC1)C(=O)N[C@@H](C[C@@H]1CCNC1=O)C(=O)C(=O)NC1CC1 (stereo partly shown) [Compound A36] | 1150 nM
33 | CCCC[C@H](NC(=O)OC(c1ccccc1)C(F)(F)c1cccc(Cl)c1)C(=O)N[C@@H](C[C@@H]1CCCNC1=O)C(=O)C(=O)NC1CC1 (stereo partly shown) [Compound A127] | 10 nM
34 | CC(C)C[C@H](NC(=O)OC(c1ccccc1)C(F)(F)c1cccc(F)c1)C(=O)N[C@H](C=O)C[C@@H]1CCNC1=O (stereo partly shown) [Compound A2] | 4 nM
